Assay results as given in the OligoGym collection.
Bases are written 5' to 3'; sugars and linkages follow in the same order, as letters with counts (s phosphorothioate, o phosphodiester; PS: all linkages phosphorothioate). C may stand for cytosine or 5-methylcytosine; the collection does not tell. l = locked nucleic acid (LNA); d = 2'-deoxy (DNA)

Molecular target: HIF1A
Assay: HeLa, 100 nM transfected, 24 h, mean of 3
Conditions: ASO

Sequence	caspase activation (% of PBS control)
ACTGCCTTCTTAC (sugars l1 d1 l1 d7 l3, PS)	257
ACTGCCTTCTTAC (sugars l1 d1 l1 d8 l2, PS)	191
ACTGCCTTCTTAC (sugars l1 d1 l1 d9 l1, PS)	188
ACTGCCTTCTTAC (sugars l1 d1 l2 d6 l3, PS)	247
ACTGCCTTCTTAC (sugars l1 d1 l2 d7 l2, PS)	217
ACTGCCTTCTTAC (sugars l1 d1 l2 d8 l1, PS)	222
ACTGCCTTCTTAC (sugars l1 d2 l1 d6 l3, PS)	126
ACTGCCTTCTTAC (sugars l1 d2 l1 d7 l2, PS)	112
ACTGCCTTCTTAC (sugars l1 d2 l1 d8 l1, PS)	119
ACTGCCTTCTTAC (sugars l1 d9 l1 d1 l1, PS)	140
ACTGCCTTCTTAC (sugars l1 d9 l3, PS)	140
ACTGCCTTCTTAC (sugars l1 d10 l2, PS)	120
ACTGCCTTCTTAC (sugars l1 d11 l1, PS)	130
ACTGCCTTCTTAC (sugars l2 d1 l1 d6 l3, PS)	166
ACTGCCTTCTTAC (sugars l2 d1 l1 d7 l2, PS)	162
ACTGCCTTCTTAC (sugars l2 d1 l1 d8 l1, PS)	177
ACTGCCTTCTTAC (sugars l2 d8 l1 d1 l1, PS)	199
ACTGCCTTCTTAC (sugars l2 d8 l3, PS)	209
ACTGCCTTCTTAC (sugars l2 d9 l2, PS)	167
ACTGCCTTCTTAC (sugars l2 d10 l1, PS)	171
ACTGCCTTCTTAC (sugars l3 d7 l1 d1 l1, PS)	383
ACTGCCTTCTTAC (sugars l3 d7 l3, PS)	403
ACTGCCTTCTTAC (sugars l3 d8 l2, PS)	339
ACTGCCTTCTTAC (sugars l3 d9 l1, PS)	332
ACTGCCTTCTTAC (sugars l4 d6 l1 d1 l1, PS)	393
ACTGCCTTCTTAC (sugars l4 d6 l3, PS)	410
ACTGCCTTCTTAC (sugars l4 d7 l2, PS)	406

Sequence	caspase activation (% of PBS control)
ACTGCCTTCTTAC (sugars l4 d8 l1, PS)	387
ACTGCCTTCTTAC (sugars lddlddddddldl, PS)	118
ACTGCCTTCTTAC (sugars ldldddddddldl, PS)	208
ACTGCCTTCTTAC (sugars ldllddddddldl, PS)	217
ACTGCCTTCTTAC (sugars lldlddddddldl, PS)	146
CAAGCATCCTGTA (sugars l1 d1 l1 d7 l3, PS)	198
CAAGCATCCTGTA (sugars l1 d1 l1 d8 l2, PS)	171
CAAGCATCCTGTA (sugars l1 d1 l1 d9 l1, PS)	121
CAAGCATCCTGTA (sugars l1 d1 l2 d6 l3, PS)	134
CAAGCATCCTGTA (sugars l1 d1 l2 d7 l2, PS)	151
CAAGCATCCTGTA (sugars l1 d1 l2 d8 l1, PS)	145
CAAGCATCCTGTA (sugars l1 d2 l1 d6 l3, PS)	97
CAAGCATCCTGTA (sugars l1 d2 l1 d7 l2, PS)	107
CAAGCATCCTGTA (sugars l1 d2 l1 d8 l1, PS)	101
CAAGCATCCTGTA (sugars l1 d9 l1 d1 l1, PS)	92.1
CAAGCATCCTGTA (sugars l1 d9 l3, PS)	135
CAAGCATCCTGTA (sugars l1 d10 l2, PS)	111
CAAGCATCCTGTA (sugars l1 d11 l1, PS)	100
CAAGCATCCTGTA (sugars l2 d1 l1 d6 l3, PS)	119
CAAGCATCCTGTA (sugars l2 d1 l1 d7 l2, PS)	133
CAAGCATCCTGTA (sugars l2 d1 l1 d8 l1, PS)	123
CAAGCATCCTGTA (sugars l2 d8 l1 d1 l1, PS)	175
CAAGCATCCTGTA (sugars l2 d8 l3, PS)	250
CAAGCATCCTGTA (sugars l2 d9 l2, PS)	189
CAAGCATCCTGTA (sugars l2 d10 l1, PS)	142
CAAGCATCCTGTA (sugars l3 d7 l1 d1 l1, PS)	302
